Converted amounts (≈) assume the structure as drawn. Non-standard residues stand in square brackets, D forms with d. Residues, ends and D or L forms follow the SMILES beside them. *: point of attachment. Palmitoyl = CCCCCCCCCCCCCCCC(=O)*
Columns and labels:
Assay type in all cases: cell-based
E. coli D21 = conditions: D21, pH 7.4
[1] = test system: Pseudomonas aeruginosa ATCC 27853; conditions: ATCC 27853, pH 7.4
Description: (§1) The antibacterial activity of the lipopeptides was examined in sterile 96-well plates (Nunc F96 microtiter plates) in a final volume of 100 μl as follows: Aliquots (50 μl) of a suspension containing bacteria at concentration of 1×10^6 Colony-Forming Units (CFU)/ml in culture LB (Lauria broth) medium (pH 7.4 or pH 5.5) were added to 50 μl of water containing the lipopeptide in serial 2-fold dilutions in water. Adjustment of the pH was done by diluted solutions of HCl and NaOH Inhibition of growth was determined by measuring the absorbance at 600 nm with a Microplate autoreader E1309 (Bio-Tek Instruments), after an incubation time of 18-20 h at 37° C. Antibacterial activities were expressed as the minimal inhibitory concentration (MIC), the concentration at which 100% inhibition of growth was observed after 18-20 h of incubation. The bacteria used were: Escherichia coli ATCC 25922, Acinetobacter baumannii ATCC 19606, Pseudomonas aeruginosa ATCC 27853, Staphylococcus aureus ATCC 6538P, Enterococcus faecalis ATCC 29212, Enterobacter cloacae ATCC 49141. The antibacterial activity of lipopeptides was also examined against resistant bacteria: methicilin-resistant Staphylococcus aureus (MRSA) ATCC 700698 and vancomycin-resistant Enterococcus faecium (VRE) ATCC 700221. If not indicated otherwise, the bacterial growth was detected at pH 7.4.

[2] = test system: Staphylococcus aureus ATCC 6538P; conditions: ATCC 6538, pH 7.4
Description: as §1

[3] = test system: Candida albicans ATCC 10231; experiment: microbe, parasite or virus in culture; conditions: ATCC 10231, pH 7.4; read-out: Minimal Inhibitory Concentration, Candida Albicans (ATCC 10231)
Description: The antifungal activity of the lipopeptides was examined in sterile 96-well plates (Nunc F96 microtiter plates) in a final volume of 200 μL as follows: 100 µl of a suspension containing fungi at a concentration of 1×10^4 Colony-Forming Units (CFU)/ml in culture medium (RPMI 1640, 0.165 M MOPS with L-glutamine, without NaHCO3) at pH 7.4 or pH 5.5 (adjustment of the pH was done by diluted solutions of HCl and NaOH) were added to 100 μl of water containing the peptide in serial 2-fold dilutions in water. The fungi were incubated in the presence of the lipopeptides for 24-48 h at 35° C. in a Binder KB115 incubator under agitation. Growth inhibition was determined by measuring the absorbance at 620 nm with a Microplate autoreader E1309 (Bio-Tek Instruments). Antifungal activity is expressed as the minimal inhibitory concentration (MIC), the concentration at which 100% inhibition of fungi growth was observed after the incubation time mentioned above. The fungi used were: Aspergillus niger ATCC 9642, Candida albicans ATCC 10231 and Cryptococcus neoformans ATCC 66031. If not indicated otherwise, the fungi growth was detected at pH 7.4.

[4] = test system: Cryptococcus neoformans ATCC MYA-422; experiment: microbe, parasite or virus in culture; conditions: ATCC MYA-422, pH 7.4; read-out: Minimal Inhibitory Concentration, Cyrptococcus neoformans (ATCC MYA-422)
[5] = test system: Aspergillus fumigatus ATCC 26430; experiment: microbe, parasite or virus in culture; conditions: ATCC 26430, pH 7.4; read-out: Minimal Inhibitory Concentration, Aspergillus Fomigatus (ATCC 26430)
[6] = test system: Acinetobacter baumannii ATCC 19606; conditions: ATCC 19606, pH 7.4
Description: as §1

MIC [3] | MIC [4] | MIC [5] | Compound | Minimal Inhibitory Concentration, E. coli-D21 (E. coli D21) | Minimal Inhibitory Concentration, P. aeruginosa ATCC 27853 [1] | Minimal Inhibitory Concentration, S. aureus ATCC 6538P [2] | Minimal Inhibitory Concentration, A. baumannii ATCC 19606 [6]
25 µM (≈ 19.2 µg/mL) | 1.56 µM (≈ 1.2 µg/mL) | 12.5 µM (≈ 9.6 µg/mL) | CCCCCCCCCCCCCCCC(=O)N[C@@H](CCCCN)C(=O)N[C@@H](CCCCN)C(=O)N[C@@H](CCCCN)C(=O)N[C@@H](CCCCN)C(N)=O [PA-KKKK] (Palmitoyl-KKKK-NH2) | 12.5 µM | 3.12 µM | 25 µM | 
25 µM (≈ 19.9 µg/mL) | 1.56 µM (≈ 1.24 µg/mL) | 6.25 µM (≈ 4.96 µg/mL) | CCCCCCCCCCCCCCCC(=O)N[C@@H](CCCNC(=N)N)C(=O)N[C@@H](CC(C)C)C(=O)N[C@H](CC(C)C)C(=O)N[C@@H](CCCNC(=N)N)C(N)=O [PA-RLLR, Palmitoyl-Arg-Leu-D-Leu-Arg-NH2] (Palmitoyl-RL[dL]R-NH2) | >100 µM | >100 µM | 25 µM | >100 µM
25 µM (≈ 16 µg/mL) | 12.5 µM (≈ 8.01 µg/mL) | 25 µM (≈ 16 µg/mL) | CCCCCCCCCCCCCCCC(=O)N[C@@H](CCC(=O)O)C(=O)N[C@H](CCCCN)C(=O)N[C@@H](CCCCN)C(N)=O [PA-EKK, Palmitoyl-Glu-D-Lys-Lys-NH2] (Palmitoyl-Glu-[dK]-Lys-NH2) | 100 µM | >100 µM | 25 µM | >100 µM
25 µM (≈ 16.3 µg/mL) | 3.12 µM (≈ 2.04 µg/mL) | 12.5 µM (≈ 8.17 µg/mL) | CCCCCCCCCCCCCCCC(=O)N[C@@H](CCCCN)C(=O)N[C@@H](C)C(=O)N[C@H](C)C(=O)N[C@@H](CCCCN)C(N)=O [PA-KAAK, Palmitoyl-Lys-Ala-D-Ala-Lys-NH2] (Palmitoyl-KA[dA]K-NH2) | 6.25 µM | 100 µM | 6.25 µM | 100 µM
50 µM (≈ 38.5 µg/mL) | 12.5 µM (≈ 9.61 µg/mL) | 50 µM (≈ 38.5 µg/mL) | CCCCCCCCCCCCCCCC(=O)N[C@@H](CCCCN)C(=O)N[C@H](CCCCN)C(=O)N[C@@H](CCC(=O)O)C(=O)N[C@@H](CCCCN)C(N)=O [PA-KKEK, Palmitoyl-Lys-D-Lys-Glu-Lys-NH2] (Palmitoyl-K[dK]EK-NH2) | 25 µM | 100 µM | 25 µM | 100 µM
